Test results from US20220395438A1, “TOOTH WHITENING COMPOSITION” (Universitat Autonoma de Barcelona, priority 2019, published 2022).

Assay: Tooth whitening treatments at 20 minutes according to 2^2 factorial design (colorimetric ΔE)
Parameters: species or system bovine
Settings: 8 specimens per treatment

With `O=S([O-])S(=O)(=O)[O-].[Na+].[Na+]` [Comparative 2, sodium metabisulfite] the “increase in the whiteness of the tooth, ΔE ± standard deviation” value (shortened to “increase … ΔE ± standard deviation”) (3 minutes of treatment) was 7.3 ± 1.5, the “increase … ΔE ± standard deviation” value (3 minutes of treatment, listed as MBS) was 7.3 and the “increase … ΔE ± standard deviation” value (6 minutes of treatment) was 12.9 ± 0.8. The “increase … ΔE ± standard deviation” value (9 minutes of treatment) was 14.7 ± 1.8, the “increase … ΔE ± standard deviation” value (14 minutes of treatment) was 14.8 ± 1.7 and the “increase … ΔE ± standard deviation” value (20 minutes of treatment) was 16.2 ± 1.7.
